{"source": "patent US9820483B2", "about": "“Microbial composition” (Rohm and Haas Company, priority 2011, dated 2017)", "key": {"[1]": {"test_system": "E. coli ATCC #10536", "assay": "Synergy test: high resolution MBC microtiter plate assay in phosphate buffer containing 35% dipropylene glycol, 15 seconds contact", "type": "cell-based, Escherichia coli", "conditions": "E. coli 10536, complete kill in 15 seconds, phosphate buffer with 35% DPG", "from_the_text": "One measure of synergy is the industrially accepted method described by Kull, F. C.; Eisman. P. C.; Sylwestrowicz, H. D. and Mayer, R. L., in Applied Microbiology 9:538-541 (1961), using the ratio determined by the formula: Qa/QA÷Qb/QB=Synergy Index (“SI”) wherein: QA=concentration of compound A (first component) in percent, acting alone, which produced an end point (MBC of Compound A). […]=concentration of compound A in percent, in the mixture, which produced an end point. QB=concentration of compound B (second component) in percent, acting alone, which produced an end point (MBC of Compound B). Qb=concentration of compound B in percent, in the mixture, which produced an end point.\nWhen the sum of Qa/QA and Qb/QB is greater than one, antagonism is indicated. […] The lower the SI, the greater is the synergy shown by that particular mixture. The minimum biocidal concentration (MBC) of a microbicide is the lowest concentration tested under a specific set of conditions that provides complete kill of the tested microorganisms.\nSynergy tests were conducted using standard microtiter plate assays with phosphate buffer containing 35% dipropylene glycol (DPG). In this method, a wide range of combinations of chemicals was tested by conducting high resolution MBC assays of Component (A) in the presence of various concentrations of Component (B). High resolution MBCs were determined by adding varying amounts of microbicide to one column of a microtiter plate and doing subsequent ten-fold dilutions using an automated liquid handling system to obtain a series of closely spaced endpoints. The MBC plate was inoculated one column at a time with the test microorganism. An aliquot of the inoculated well was transferred at 15 seconds to a plate containing a neutralizing agent (D/E Neutralizing Broth), mixed and held for 5 minutes before being transferred to a growth plate containing trypticase soy broth (TSB). The TSB plate was incubated at 37° C. and read for the presence/absence of growth at 24 hours. The lowest level tested that provided complete kill (as evidenced by no growth in the microtitre plate) of the test organisms in 15 seconds is the minimum biocidal concentration (MBC).\nThe synergy of the combinations of the present invention was determined against a bacterium, Esherichia coli (E. coli—ATCC #10536), at a concentration of approximately 1×10^8 bacteria per mL. This microorganism is representative of natural contaminants in many consumer and industrial applications."}, "[2]": {"test_system": "Escherichia coli (E. coli—ATCC #10536)", "assay": "Automated assessment of efficacy in model surfactant base (2.85% sodium cocoyl glycinate + 1.85% sodium lauroamphoacetate, pH 10), 15 seconds exposure, delta OD450/OD590 in D/E quench", "type": "cell-based", "procedure": "Solutions were prepared such that the concentrations of the surfactant components and test actives were 1.1× the final desired concentration in order to allow for dilution with the bacterial inoculum in the test. The solutions were manually adjusted to pH 10.0 by dropwise addition of sodium hydroxide solution, as measured with a pH meter at ambient temperature.\nTests were conducted using standard microtiter plate assays using an automated liquid handling system. 270 μl of the surfactant test solution was pipetted into each well of the microtitre plate and 30 μl of the bacterial suspension was then added. After exactly 15 seconds of bacterial exposure, a 30 μl volume of bacterial cells was withdrawn and transferred to 270 μl of D/E quench solution. After 5 minutes in the D/E quench, the optical density (OD) was measured for each plate in turn at two specific wavelengths (450 nm and 590 nm). These provide a dual check of antimicrobial activity, as the OD450 reading is specific for the yellow colour of D/E quench when bacterial growth is observed, whereas OD590 is specific for the initial purple colour of the D/E quench which is retained if no bacterial growth is observed. After the time zero OD measurements, plates were then incubated at 37° C. overnight (16 hours) before repeating the OD measurements. Delta OD values were calculated by subtracting […]. Bacterial growth is observed as an increase in OD450 and a decrease in ΔOD590. To identify antibacterially efficacious systems (those preventing appreciable bacterial growth after incubation), the following threshold changes in OD readings have been adopted: if (1). OD450 increases by less than 0.2 absorbance unit on incubation and (2). OD590 decreases by less than 0.35 unit on incubation. Conversely, where OD450 increases by more than 0.2 AU and OD590 decreases by more than 0.35 unit after incubation, corresponding to a colour shift from purple to yellow, the test system allows bacterial growth and is not deemed efficacious. Four replicate measurements in the same plate have been made for each test system. The number of replicate wells showing either bacterial growth or no growth is also readily assessed by eye by following the colour change.\nDose responses for individual components and binary mixtures of actives at a fixed concentration ratio were generated by sequential dilution of liquors with further surfactant solution to obtain a series of endpoints.\nIn some selected cases, the combinations were also tested at the weight ratio 1:1.\nThe method used was the same as in the above Table."}}, "data": [{"smiles": "C=C(C)C1CCC(C)C(O)C1", "note": "(centres unmarked) [2-methyl-5-(prop-1-en-2-yl)cyclohexanol]", "values": [{"measurement": "MBC of the component acting alone (QA or QB; Qa or Qb with the other component at 0)", "setting": "[1]", "value": 0.5, "unit": "weight %"}, {"measurement": "MBC", "setting": "[2]; Escherichia coli, ATCC10536, 15 s, in 2.85% sodium cocoyl glycinate + 1.85% sodium lauroamphoacetate solution at pH 10, E. coli, read-out: MBC", "value": 4000, "unit": "µg/mL"}, {"measurement": "No. of replicates showing growth (out of 4)", "setting": "[2]; single active at 0.3% w/v", "value": 4}, {"measurement": "Δ OD 590 nm = OD590 (time = 16 hours) − OD590 (time zero), Mean", "setting": "[2]; single active at 0.3% w/v", "value": 0.66}, {"measurement": "ΔOD 450 nm = OD450 (time = 16 hours) − OD450 (time zero), Mean", "setting": "[2]; single active at 0.3% w/v", "value": "−0.44"}, {"measurement": "No. of replicates showing growth (out of 4)", "setting": "[2]; single active at 0.5% w/v", "value": 0}, {"measurement": "Δ OD 590 nm = OD590 (time = 16 hours) − OD590 (time zero), Mean", "setting": "[2]; single active at 0.5% w/v", "value": 0.20}, {"measurement": "ΔOD 450 nm = OD450 (time = 16 hours) − OD450 (time zero), Mean", "setting": "[2]; single active at 0.5% w/v", "value": 0.23}, {"measurement": "No. of replicates showing growth (out of 4)", "setting": "[2]; single active at […] w/v", "value": 4}, {"measurement": "Δ OD 590 nm = OD590 (time = 16 hours) − OD590 (time zero), Mean", "setting": "[2]; single active at […] w/v", "value": 0.63}, {"measurement": "ΔOD 450 nm = OD450 (time = 16 hours) − OD450 (time zero), Mean", "setting": "[2]; single active at […] w/v", "value": "−0.50"}]}]}
